This is an account of results in US6056958A, “Method of treatment of arterial and venous thromboembolic disorders” (Dupont Pharmaceuticals, priority 1997, dated 2000).

The test system of experiment [1] is Platelet Aggregation. In words: In Vivo Platelet Aggregation Inhibition in Dog. The following applies: IV.
Experiment [2] deals with T1, GPIIb/IIIa receptor (Homo sapiens, UniProt P05106+P08514).
T1 construct: The GPIIb/IIIa receptor was purified from human platelets; from tissue; host or cells: human platelets (purified according to D'Souza et al., J. Biol. Chem. 1990, 265:3440-3446)
T1 sequence (P08514 32-887 limits assumed): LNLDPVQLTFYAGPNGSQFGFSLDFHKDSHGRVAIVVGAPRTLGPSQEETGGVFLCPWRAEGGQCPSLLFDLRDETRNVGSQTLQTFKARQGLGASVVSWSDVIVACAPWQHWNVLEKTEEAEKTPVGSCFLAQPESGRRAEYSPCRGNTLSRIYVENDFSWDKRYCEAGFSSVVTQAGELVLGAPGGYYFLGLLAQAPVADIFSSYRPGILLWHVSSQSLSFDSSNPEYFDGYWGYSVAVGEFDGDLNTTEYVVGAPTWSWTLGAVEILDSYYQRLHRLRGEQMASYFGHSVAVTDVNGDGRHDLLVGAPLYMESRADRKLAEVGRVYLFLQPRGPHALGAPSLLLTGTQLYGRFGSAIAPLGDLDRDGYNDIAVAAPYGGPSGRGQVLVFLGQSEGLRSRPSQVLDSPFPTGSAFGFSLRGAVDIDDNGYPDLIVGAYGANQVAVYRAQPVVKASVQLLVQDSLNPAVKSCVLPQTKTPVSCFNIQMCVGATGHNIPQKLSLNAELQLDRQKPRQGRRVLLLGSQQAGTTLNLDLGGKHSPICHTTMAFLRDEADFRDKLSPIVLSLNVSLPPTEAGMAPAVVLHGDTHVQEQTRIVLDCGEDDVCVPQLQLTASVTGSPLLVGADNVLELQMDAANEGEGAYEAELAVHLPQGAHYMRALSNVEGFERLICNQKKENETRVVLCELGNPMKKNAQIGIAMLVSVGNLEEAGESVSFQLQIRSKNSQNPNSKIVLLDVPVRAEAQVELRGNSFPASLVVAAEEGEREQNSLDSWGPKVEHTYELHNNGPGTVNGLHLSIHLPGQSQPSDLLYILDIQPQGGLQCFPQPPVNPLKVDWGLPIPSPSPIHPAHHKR
T1 sequence (P08514 891-1039 partner limits assumed): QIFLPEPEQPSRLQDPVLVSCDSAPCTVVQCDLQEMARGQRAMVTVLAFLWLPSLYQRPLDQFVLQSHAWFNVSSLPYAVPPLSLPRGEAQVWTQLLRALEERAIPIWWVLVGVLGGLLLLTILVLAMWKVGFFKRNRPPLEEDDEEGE
T1 sequence (P05106 27-788): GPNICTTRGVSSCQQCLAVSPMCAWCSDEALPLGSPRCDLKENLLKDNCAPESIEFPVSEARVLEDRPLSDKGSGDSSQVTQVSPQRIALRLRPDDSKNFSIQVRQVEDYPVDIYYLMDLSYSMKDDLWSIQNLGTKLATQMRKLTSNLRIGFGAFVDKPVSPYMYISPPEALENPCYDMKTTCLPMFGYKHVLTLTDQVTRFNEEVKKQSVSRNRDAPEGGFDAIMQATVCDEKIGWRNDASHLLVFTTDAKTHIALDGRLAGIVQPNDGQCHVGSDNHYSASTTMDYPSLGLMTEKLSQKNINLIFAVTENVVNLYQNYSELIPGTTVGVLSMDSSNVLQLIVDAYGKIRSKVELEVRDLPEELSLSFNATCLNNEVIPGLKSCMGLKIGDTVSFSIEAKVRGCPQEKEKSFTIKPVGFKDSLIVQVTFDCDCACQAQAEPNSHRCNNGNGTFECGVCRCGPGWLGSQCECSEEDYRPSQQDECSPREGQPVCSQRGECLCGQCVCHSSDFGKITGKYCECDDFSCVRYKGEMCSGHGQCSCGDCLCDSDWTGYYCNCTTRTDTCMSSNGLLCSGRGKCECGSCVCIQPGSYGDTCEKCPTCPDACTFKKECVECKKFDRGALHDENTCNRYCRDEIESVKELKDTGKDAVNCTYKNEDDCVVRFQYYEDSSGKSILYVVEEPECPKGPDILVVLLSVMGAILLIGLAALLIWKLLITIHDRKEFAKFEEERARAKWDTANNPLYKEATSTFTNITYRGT
Description: GPIIb/IIIa Receptor-Biotinylated Fibrinogen Binding Assay. The note with it: inhibition of fibrinogen binding to purified GPIIb/IIIa. The text has this: Compounds may be tested for their ability to block binding of vitronectin to the αv /β3 receptor and to block the binding of fibrinogen to GPIIb/IIIa receptor in the αv /β3 -Biotinylated Vitronectin Binding Assay and GPIIb/IIIa Receptor-Biotinylated Fibrinogen Binding Assay described below.
GPIIb/IIIa Receptor-Biotinylated Fibrinogen Binding Assay
The GPIIb/IIIa receptor was purified from human platelets according to D'Souza et al. (J. Biol. Chem., 1990, 265:3440-3446). The purified GPIIb/IIIa protein was coated on 96 well plates and the competition between test compound and biotinylated fibrinogen for binding to the plate-immobilized GPIIb/IIIa receptor was determined by ELISA as described below. Bound fibrinogen was detected using an avidin-alkaline phosphatase conjugate and paranitrophenol detection at […]. For IC50 determination, test agent was added at various concentrations to plates coated with purified GPIIb/IIIa protein which was followed by the addition of biotinylated fibrinogen. The inhibitory binding constant (Ki) of test agents were calculated under this assay system using standard Michaelis-Menten analysis. The IC50 is the concentration of test substance needed to block 50% of the fibrinogen binding to the GPIIb/IIIa receptor.
The following reagents may be used in the GPIIb/IIIa-fibrinogen binding ELISA:
purified GPIIb/IIIa (148.8 μg/mL);
biotinylated fibrinogen (~1 mg/mL or 3000 nM);
anti-biotin alkaline phosphatase conjugate (Sigma no. A7418);
flat-bottom, high binding, 96-well plates (Costar Cat. no. 3590);
phosphatase substrate (Sigma 104) (40 mg capsules);
bovine serum albumin (BSA) (Sigma no. A3294);
Alkaline Phosphatase buffer--0.1 M glycine-HCl, 1 mM MgCl2.6H2 O, 1 mM ZnCl2, pH 10.4;
Binding buffer--20 mM Tris-HCl, 150 mM NaCl, 1 mM CaCl2.2H2 O, 0.02% NaN3, pH 7.0;
Buffer A--50 mM Tris-HCl, 100 mM NaCl, 2 mM CaCl2.2H2 O, 0.02% NaN3, pH 7.4;
Buffer A+3.5% BSA (Blocking buffer);
Buffer A+0.1% BSA (Dilution buffer);
The following method steps are used in the GPIIb/IIIa-fibrinogen binding ELISA:
Coat plates with GPIIb/IIIa in Binding buffer (125 ng/100 μL/well) overnight at 4° C. (Leave first column uncoated for non-specific binding). Cover and freeze plates at -70° C. until used. Thaw plate 1 hour at room temperature or overnight at 4° C. Discard coating solution and wash once with 200 μL Binding buffer per well. Block plate 2 hours at room temperature on shaker with 200 μl Buffer A+3.5% BSA (Blocking buffer) per well. Discard Blocking buffer and wash once with 200 μL Buffer A+0.1% BSA (Dilution buffer) per well. Pipet 11 μL of test compound (10× the concentration to be tested in Dilution buffer) into duplicate wells. […] Read plate at 405 nm. Blank against non-specific binding (NSB) well. % Inhibition is calculated as 100-(Test Compound Abs/Total Abs)×100.

Non-standard residues stand in square brackets, D forms with d. Residues, ends and D or L forms follow the SMILES beside them. 3Amb = NCc1cccc(C(=O)O)c1

Consider `C[C@@H]1NC(=O)c2cccc(c2)CNC(=O)[C@H](CC(=O)O)NC(=O)CNC(=O)[C@H](CCCNC(=N)N)NC1=O` [Compound A, cyclo-(Ala-Arg-Gly-Asp-Mamb)] (cyclo(RGD[3Amb]A)), for which the “Platelet Aggregation Inhibition (%)” value in experiment [1] (1 mg/kg) is 0-10%; in experiment [1] (3 mg/kg), 10-20%; in experiment [1] (10 mg/kg), 30-50%. Besides, the IC50 (commonly the concentration that gives 50% inhibition) in experiment [2] amounted to 408 nM.

Turning to `N=C(N)NCCC[C@@H]1NC(=O)[C@@H]2CCCN2C(=O)c2cccc(c2)CNC(=O)[C@H](CC(=O)O)NC(=O)CNC1=O` [Compound B, cyclo-(Pro-Arg-Gly-Asp-Mamb)] (cyclo(RGD[3Amb]P)), the results for the “Platelet Aggregation Inhibition (%)” value in experiment [1] (1 mg/kg), in experiment [1] (3 mg/kg) and in experiment [1] (10 mg/kg) were 0-10%, 0-10% and 10-20%, respectively. In experiment [2], this compound gave an IC50 of 1520 nM.
